Experiments:
[1] = tested on: alcohol dehydrogenase from Vanilla planifolia embryo culture (vanillyl alcohol dehydrogenase, VAD); test: Substrate specificity of vanillyl alcohol dehydrogenase (VAD); format: biochemical; conditions: for Activity with the compound as substrate, NADH: cofactor NADH; for Activity with the compound as substrate, NADPH: cofactor NADPH
Procedure: We have purified and characterized the activity of VAD that catalyze the reduction of vanillin to vanillyl alcohol. The enzyme was identified as an NADH or NADPH-dependent alcohol dehydrogenase. The purification protocol was as set forth below.
Crude enzyme extract: Tissue was homogenized in 0.05 M actetate-Na buffer pH 4.0 (in proportion, 1 g of the tissue and 5 ml of the buffer) in an ice bath, using Polytrone homogenizer, at 20,000 revolutions of the blade per min. The homogenate was centrifuged at 13000 g for 15 min at 4° C. and the supernatant served as the crude enzyme source.
Ammonium sulfate fractionation and molecular sieving: Crude enzyme extract (100 ml) was supplied with ammonium sulfate in an ice bath up to 60% of saturation (44.4 g of Ammonium sulphate per 100 ml). The precipitate was centrifuged and discarded. The supernatant was supplied with ammonium sulfate up to 90% of saturation (total 64.6 g per 100 ml of crude extract). The precipitate was collected (10 min centrifugation at 10,000 g), dissolved in 7 ml of extraction buffer and subjected to molecular sieving at Sephacryl S-300 High Load Column (LKB Pharmacia) 2.6×60 cm, in 0.1 M pH 4.0 acetate-Na buffer. The flow rate was adjusted to 1 ml/min and 5 ml fractions were collected. The protein elution profile was monitored at 280 nm. Five fractions (of a total of 50) containing dehydrogenase activity (130–155 ml of the column eluate) were collected.
The column was developed with 0.5 M Tris/HCL buffer pH 7.4 in 0.0–1.0 M NaCl gradient (total gradient volume—70 ml) and 2.5 ml fractions were collected. Vanillyl alcohol dehydrogenase was released from the column between 0.3–0.4 M NaCl. Fractions containing VAD activity were dialysed overnight against 0.05 M caetate-Na buffer pH 4.0 and concentrated up to 50 times using Minicon concentrating filters (Amicon). […]

[2] = tested on: V. planifolia embryo culture; test: Uptake of exogenously added vanillin and transformation to vanillyl alcohol in embryo culture; format: cell-based, Vanilla planifolia
Description: FIG. 3. Graph showing uptake of exogenously added vanillin and its transformation to vanillyl alcohol by vanillyl alcohol dehydrogenase in V. planifolia embryo culture. V(T)=vanillin in tissue; V(M)=vanillin in medium; VAL(T)=vanillyl alcohol in tissue; VAL(M)=vanillyl alcohol in medium.
Similarly, vanilla embryo culture that can be elicited by various elicitors to produce vanillin accumulates vanillyl alcohol as a final product. It is important to state at this stage that all the intermediates in the pathway are found mainly as glucosides.

Vanilla embryo culture = test: Feeding vanilla embryo culture with vanillin precursors, HPLC analysis of metabolites; format: cell-based, Vanilla planifolia
Description: We derived a scheme for the vanillin biosynthetic pathway by analysis of metabolites in cultured embryos and by experiments with feeding of precursors and intermediates. This scheme is shown in FIG. 1 and the experiments are described below.
Embryo cultures of Vanilla planifolia were established as described in Example 1. The procedures used to extract phenolics from the cultured embryo cells and to analyze the extracts by high pressure liquid chromatography (HPLC) were as described generally by Havkin-Frenkel et al., Plant Cell, Tissue and Organ Culture 45: 133–136 (1996).
In the extraction procedure, 3 ml of 0.05 M sodium acetate buffer, pH 5.5, was added to about 1 gram of fresh culture. Samples were placed in boiling water for three minutes, then chilled. The cells were next homogenized in a Polytron blender for 1 minute at medium speed. A β-glucosidase solution was added to the homogenized cells to give a final concentration of 0.2%. Each sample was then incubated at 37° C. for 5 hr. Next, 17 ml of 95% ethanol was added, after which incubation at 37° C. was continued for an additional 24 hrs. The extract was then filtered and the ethanol evaporated. The filtrate was extracted twice using ethyl acetate, then extracted twice with ethyl acetate acidified to pH 3 with HCl. The extracts were combined and the ethyl acetate evaporated. The residue was dissolved in 1 ml of acidified methanol and filtered with a 0.45 μm syringe filter for HPLC analysis.
Extractions of metabolites from culture medium was similar to the cell extraction protocol. Five ml of spent medium was incubated in a β-glucosidase solution at 37° C. for 24 hrs. The medium was then extracted with ethyl acetate and the organic portions combined and evaporated, as for the cell extracts.
Metabolite levels were measured with a Hewlett Packard 1090L or a Waters HPLC with a UV detector at 280 nm. The Waters HPLC was also equipped with a diode array detector to confirm the identities of the various intermediates, and the identities of the various intermediates were further confirmed by mass spectrometry. The column was a Supelco C-18 DB column of dimensions 250 mm×4.6 mm and a particle size of 5 μm. The mobile phase contained methanol and water, each of which was acidified with 1.25% acetic acid. The flow rate was 1 ml/min, with a solvent gradient as follows: […]
Results of selected experiments in which precursors or elicitors were added to vanilla cultures are set forth below. These experiments were performed in accordance with the procedures set forth in Examples 1–4.

[3] = tested on: V. planifolia tissue culture; test: Bio-conversion of 3,4-dihydroxybenzaldehyde to vanillin and vanillyl alcohol in tissue culture; format: cell-based, Vanilla planifolia; conditions: addition of 1–5 mM pro-ald
Procedure: The following procedure was used for the bio-conversion of 3,4-dihydroxybenzaldehyde (“proaldehyde”) to vanillin and vanillyl alcohol in V. planifolia tissue culture. The medium used for cultures was G-medium as described above. Pro-ald solutions were prepared in G-medium, to final concentrations of 0.01 to 5 mM.
Cultures used for the bio-conversion were (1) clusters, (2) embryo culture, and (3) tissue homogenates of the above cultures. Cultures were of varying ages ranging from 0 to 1 month old. The cultures were allowed to remain under normal culture conditions for 0 to 15 days. As controls, untreated cultures were extracted and analyzed as described in Example 2.
Proaldehyde at different concentrations was added to the medium, either alone or in combination with the following treatments:
Bioreactor-grown cultures were used for the bio-conversions. Different kinds of impeller designs were used to increase or decrease shear stress on the cells prior to the addition of pro-ald.

SMILES	substrate preference of VAD [1]	Activity with the compound as substrate, NADH [1] [nmoles · gfwt^−1 · min^−1]	Activity with the compound as substrate, NADPH [1] [nmoles · gfwt^−1 · min^−1]	fate of compound applied to the growing medium of embryo culture [2]	fate of exogenously fed compound in cultured embryos (Vanilla embryo culture; feeding experiments, Example 2)	CA (p-coumaric acid) content of culture (Vanilla embryo culture; precursor fed at 1 mM) [mg/100 g dry wt.]	HBA (p-hydroxybenzyl alcohol) content of culture (Vanilla embryo culture; precursor fed at 1 mM) [mg/100 g dry wt.]	PRO-ALD (3,4-dihydroxybenzaldehyde) content of culture (Vanilla embryo culture; precursor fed at 1 mM) [mg/100 g dry wt.]	VN (vanillin) content of culture (Vanilla embryo culture; precursor fed at 1 mM) [mg/100 g dry wt.]	VN ALC (vanillyl alcohol) content of culture (Vanilla embryo culture; precursor fed at 1 mM) [mg/100 g dry wt.]	increase of production of vanillin/vanillyl alcohol [3]
O=Cc1ccc(O)c(O)c1 [PRO-ALD, 3,4-dihydroxybenzaldehyde]	most preferred substrates	1.89	2.11	accumulation of vannilyl alcohol	rapid methylation and conversion to vanillin or vanillyl alcohol	285	8950	433	16.7	286.8	several hundred fold
COc1cc(C=O)ccc1O [Vn, vanillin]	most preferred substrates	1.26	0.97	rapid uptake and reduction of the applied compound to vanillyl alcohol	–	–	–	–	–	–	–
